Like-named read-outs stand apart in the source and are kept apart here.
Key:
[1] = tested on: CYP2C8 mRNA; experiment: CYP2C8 mRNA induction in cryopreserved human hepatocytes; format: in vitro ADME; settings: for CYP2C8 mRNA Fold induction: human hepatocytes
[2] = tested on: CYP3A4 mRNA; experiment: CYP3A4 mRNA induction in cryopreserved human hepatocytes; format: in vitro ADME; settings: for CYP3A4 mRNA induction, % PC: % of positive control response; for CYP3A4 mRNA Fold induction: human hepatocytes, maximal
[3] = tested on: human hepatocytes; experiment: Hepatocyte viability, upfront MTT assay; format: cell-based; settings: 0.03-30 μM, after 2 days treatment
Experimental: Positive control inducers behaved as expected (Table 1). Maximal 2.5-8.8-fold induction (4-6% of positive control response) in CYP3A4 mRNA were found at 0.1-0.3 μM in all three donors, and 3.1-fold for CYP2C8 mRNA in one of three lots (donor 3 only) at 0.1 μM (28% of positive control response). The induction response was attenuated at higher concentrations (Table 1).

[4] = molecular target: T1, CYP2B6 (Homo sapiens, UniProt P20813); experiment: Direct and time-dependent CYP2B6 inhibition in pooled human liver microsomes; format: in vitro ADME; settings: pooled HLM, substrate Bupropion 50 μM
T1 construct: evaluated in pooled human liver microsomes (HLM); from tissue; host or cells: pooled human liver microsomes
T1 sequence (P20813 whole entry): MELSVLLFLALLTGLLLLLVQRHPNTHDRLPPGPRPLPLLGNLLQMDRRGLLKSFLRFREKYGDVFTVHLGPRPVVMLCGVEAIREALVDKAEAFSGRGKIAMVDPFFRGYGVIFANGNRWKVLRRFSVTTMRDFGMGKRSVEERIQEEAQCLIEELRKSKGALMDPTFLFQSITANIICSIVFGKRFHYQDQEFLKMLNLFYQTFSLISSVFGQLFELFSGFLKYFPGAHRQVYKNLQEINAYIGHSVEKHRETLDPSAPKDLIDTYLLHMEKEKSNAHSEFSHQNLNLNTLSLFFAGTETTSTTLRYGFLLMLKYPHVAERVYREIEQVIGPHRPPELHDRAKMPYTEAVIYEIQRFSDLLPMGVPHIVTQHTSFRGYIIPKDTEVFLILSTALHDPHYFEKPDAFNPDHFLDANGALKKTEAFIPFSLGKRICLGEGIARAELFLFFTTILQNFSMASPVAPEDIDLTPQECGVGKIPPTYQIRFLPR
Experimental: (§1) The induction potential of Compound A on CYP enzymes was assessed in cryopreserved human hepatocytes from three donors. Following treatment for with Compound A at concentrations of 0.03-30 μM for 48 hours, mRNA levels for CYP1A2, 2B6, 2C8, 2C9, 2C19, and 3A4 were determined by semiquantitative real-time polymerase chain reaction (PCR). Test article concentrations during 24-hour incubation were determined. The potential of Compound A to cause direct and time-dependent inhibition (TDI) of the activities of CYP1A2, 2B6, 2C8, 2C9, 2C19, 2D6, and 3A4 was evaluated in pooled human liver microsomes (HLM) at 0.2-15 μM. Probe substrate concentrations around Km were used for direction inhibition and initial TDI assays. For TDI assay, Compound A was pre-incubated with pooled HLM with and without NADPH for 30 minutes prior to incubation with a single concentration of probe substrate.

[5] = molecular target: T2, CYP2C9 (Homo sapiens, UniProt P11712); experiment: Direct and time-dependent CYP2C9 inhibition in pooled human liver microsomes; format: in vitro ADME; settings: pooled HLM, substrate Diclofenac 5 μM
T2 construct: evaluated in pooled human liver microsomes (HLM); from tissue; host or cells: pooled human liver microsomes
T2 sequence (P11712 whole entry): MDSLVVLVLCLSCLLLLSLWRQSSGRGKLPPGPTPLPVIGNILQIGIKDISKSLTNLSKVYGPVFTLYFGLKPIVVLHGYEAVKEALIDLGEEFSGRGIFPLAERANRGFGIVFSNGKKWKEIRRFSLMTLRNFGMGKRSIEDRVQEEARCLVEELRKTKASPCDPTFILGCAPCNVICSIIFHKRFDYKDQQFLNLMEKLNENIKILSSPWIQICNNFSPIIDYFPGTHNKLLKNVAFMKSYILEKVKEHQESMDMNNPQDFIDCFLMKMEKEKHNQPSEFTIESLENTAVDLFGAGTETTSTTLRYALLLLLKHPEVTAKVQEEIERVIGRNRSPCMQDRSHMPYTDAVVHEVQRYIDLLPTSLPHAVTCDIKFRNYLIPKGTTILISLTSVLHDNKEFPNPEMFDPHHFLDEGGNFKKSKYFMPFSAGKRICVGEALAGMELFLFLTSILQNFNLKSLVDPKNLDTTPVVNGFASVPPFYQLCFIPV
Experimental: as §1

[6] = Metabolite profiling / stability in human liver microsomes; format: in vitro ADME
Experimental: Metabolite profiling was conducted in incubations of Compound A (2 and 10 μM) with HLM (up to 60 min), human hepatocyte suspension (up to 240 min) and human plasma (up to 360 min). In addition, Compound A (2 μM) was incubated with recombinant human CYP enzymes CYP1A2, CYP2A6, CYP2B6, CYP2C8, CYP2C9, CYP2C19, CYP2D6, CYP2E1, CYP3A4 and CYP3A5.
The DDI potential of Compound A as a victim via CYP mediated pathways was examined in HLM, human hepatocyte suspensions, and human recombinant CYP enzymes.

[7] = molecular target: T3, OAT3 (Homo sapiens, UniProt Q8TCC7); experiment: OAT3 uptake transporter inhibition in MDCKII or HEK293 cells; format: in vitro ADME; settings: substrate E3S (1 μM)
T3 construct: expressed in transfected cells; host or cells: MDCKII or HEK293
T3 sequence (Q8TCC7 whole entry): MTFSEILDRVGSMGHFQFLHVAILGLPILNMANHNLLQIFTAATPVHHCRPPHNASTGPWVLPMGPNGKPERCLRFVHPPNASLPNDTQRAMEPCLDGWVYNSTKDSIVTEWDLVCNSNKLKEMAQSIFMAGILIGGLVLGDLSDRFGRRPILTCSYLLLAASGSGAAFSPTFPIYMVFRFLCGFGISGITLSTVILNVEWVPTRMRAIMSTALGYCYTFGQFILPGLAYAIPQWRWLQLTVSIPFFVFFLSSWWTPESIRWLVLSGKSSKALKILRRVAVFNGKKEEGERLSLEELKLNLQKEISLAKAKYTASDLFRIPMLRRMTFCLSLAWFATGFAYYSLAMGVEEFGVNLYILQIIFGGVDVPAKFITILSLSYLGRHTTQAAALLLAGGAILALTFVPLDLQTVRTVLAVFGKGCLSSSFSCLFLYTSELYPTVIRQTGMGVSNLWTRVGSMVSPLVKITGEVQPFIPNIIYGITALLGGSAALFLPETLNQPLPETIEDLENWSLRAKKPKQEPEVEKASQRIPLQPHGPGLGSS
Experimental: (§2) In addition, the inhibition potential against efflux transporters (P-glycoprotein (Pgp) and breast cancer resistance protein (BCRP)) and uptake transporters (MATE1, MATE2-K, OATP1B1, OATP1B3, OAT1, OAT3, and OCT2) was assessed using single transporter over-expressed cell monolayers (MDCK II or HEK293) or inside-out vesicles.
(§3) The potential of Compound A to inhibit Pgp or BCRP was tested for bidirectional transport of the probe substrates in Pgp or BCRP-expressed MDCKII and control monolayers at Compound A concentrations of 0.07-5 μM. Pgp and BCR inhibition were tested in inside-out membrane vesicles prepared from HEK293 overexpressing human Pgp and BCR at concentrations of 0.01-9 μM Compound A in the presence of 4 mM MgATP or MgAMP.

[8] = molecular target: T4, MATE1 (Homo sapiens, UniProt Q96FL8); experiment: MATE1 uptake transporter inhibition in MDCKII or HEK293 cells; format: in vitro ADME
T4 construct: expressed in transfected cells; host or cells: MDCKII or HEK293
T4 sequence (Q96FL8 1-570): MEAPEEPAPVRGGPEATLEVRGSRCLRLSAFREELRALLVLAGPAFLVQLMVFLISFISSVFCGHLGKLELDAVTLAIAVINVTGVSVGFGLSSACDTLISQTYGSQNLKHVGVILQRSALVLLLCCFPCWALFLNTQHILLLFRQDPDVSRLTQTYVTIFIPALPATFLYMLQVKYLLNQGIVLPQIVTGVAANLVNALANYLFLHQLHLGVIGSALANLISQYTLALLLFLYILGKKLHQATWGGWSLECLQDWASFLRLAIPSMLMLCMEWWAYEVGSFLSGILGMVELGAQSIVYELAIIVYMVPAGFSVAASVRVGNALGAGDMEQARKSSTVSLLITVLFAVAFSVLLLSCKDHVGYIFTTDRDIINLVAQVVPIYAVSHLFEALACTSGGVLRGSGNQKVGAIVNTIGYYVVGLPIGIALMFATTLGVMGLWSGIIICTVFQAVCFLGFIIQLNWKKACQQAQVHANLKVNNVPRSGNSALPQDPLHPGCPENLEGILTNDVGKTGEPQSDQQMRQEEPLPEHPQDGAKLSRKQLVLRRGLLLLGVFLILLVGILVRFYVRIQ
Experimental: as §2, §3

[9] = molecular target: T5, MATE2-K (Homo sapiens, UniProt Q86VL8); experiment: MATE2-K uptake transporter inhibition in MDCKII or HEK293 cells; format: in vitro ADME; settings: substrate Metformin (10 μM)
T5 construct: expressed in transfected cells; host or cells: MDCKII or HEK293
T5 sequence (Q86VL8 1-566 isoform Q86VL8-3): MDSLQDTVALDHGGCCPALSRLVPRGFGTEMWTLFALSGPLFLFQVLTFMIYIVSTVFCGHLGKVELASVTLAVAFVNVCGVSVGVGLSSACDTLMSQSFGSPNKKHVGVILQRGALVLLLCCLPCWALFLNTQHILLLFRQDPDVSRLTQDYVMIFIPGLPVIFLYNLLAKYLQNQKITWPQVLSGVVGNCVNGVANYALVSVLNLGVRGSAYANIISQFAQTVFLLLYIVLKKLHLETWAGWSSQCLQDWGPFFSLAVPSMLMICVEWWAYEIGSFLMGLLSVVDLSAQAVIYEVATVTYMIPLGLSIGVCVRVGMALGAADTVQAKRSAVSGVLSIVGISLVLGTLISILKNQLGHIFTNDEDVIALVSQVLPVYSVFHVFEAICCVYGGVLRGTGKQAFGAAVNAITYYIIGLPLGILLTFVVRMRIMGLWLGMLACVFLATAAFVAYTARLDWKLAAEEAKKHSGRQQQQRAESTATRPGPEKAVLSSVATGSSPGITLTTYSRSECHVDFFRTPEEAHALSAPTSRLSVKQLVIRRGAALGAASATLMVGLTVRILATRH
Experimental: as §2, §3

[10] = molecular target: Pgp (Homo sapiens, UniProt P08183); experiment: Pgp inhibition in inside-out membrane vesicles from HEK293; format: in vitro ADME; design: expressed in transfected cells; host or cells: HEK293 (inside-out membrane vesicles)
Sequence of Pgp (P08183 whole entry): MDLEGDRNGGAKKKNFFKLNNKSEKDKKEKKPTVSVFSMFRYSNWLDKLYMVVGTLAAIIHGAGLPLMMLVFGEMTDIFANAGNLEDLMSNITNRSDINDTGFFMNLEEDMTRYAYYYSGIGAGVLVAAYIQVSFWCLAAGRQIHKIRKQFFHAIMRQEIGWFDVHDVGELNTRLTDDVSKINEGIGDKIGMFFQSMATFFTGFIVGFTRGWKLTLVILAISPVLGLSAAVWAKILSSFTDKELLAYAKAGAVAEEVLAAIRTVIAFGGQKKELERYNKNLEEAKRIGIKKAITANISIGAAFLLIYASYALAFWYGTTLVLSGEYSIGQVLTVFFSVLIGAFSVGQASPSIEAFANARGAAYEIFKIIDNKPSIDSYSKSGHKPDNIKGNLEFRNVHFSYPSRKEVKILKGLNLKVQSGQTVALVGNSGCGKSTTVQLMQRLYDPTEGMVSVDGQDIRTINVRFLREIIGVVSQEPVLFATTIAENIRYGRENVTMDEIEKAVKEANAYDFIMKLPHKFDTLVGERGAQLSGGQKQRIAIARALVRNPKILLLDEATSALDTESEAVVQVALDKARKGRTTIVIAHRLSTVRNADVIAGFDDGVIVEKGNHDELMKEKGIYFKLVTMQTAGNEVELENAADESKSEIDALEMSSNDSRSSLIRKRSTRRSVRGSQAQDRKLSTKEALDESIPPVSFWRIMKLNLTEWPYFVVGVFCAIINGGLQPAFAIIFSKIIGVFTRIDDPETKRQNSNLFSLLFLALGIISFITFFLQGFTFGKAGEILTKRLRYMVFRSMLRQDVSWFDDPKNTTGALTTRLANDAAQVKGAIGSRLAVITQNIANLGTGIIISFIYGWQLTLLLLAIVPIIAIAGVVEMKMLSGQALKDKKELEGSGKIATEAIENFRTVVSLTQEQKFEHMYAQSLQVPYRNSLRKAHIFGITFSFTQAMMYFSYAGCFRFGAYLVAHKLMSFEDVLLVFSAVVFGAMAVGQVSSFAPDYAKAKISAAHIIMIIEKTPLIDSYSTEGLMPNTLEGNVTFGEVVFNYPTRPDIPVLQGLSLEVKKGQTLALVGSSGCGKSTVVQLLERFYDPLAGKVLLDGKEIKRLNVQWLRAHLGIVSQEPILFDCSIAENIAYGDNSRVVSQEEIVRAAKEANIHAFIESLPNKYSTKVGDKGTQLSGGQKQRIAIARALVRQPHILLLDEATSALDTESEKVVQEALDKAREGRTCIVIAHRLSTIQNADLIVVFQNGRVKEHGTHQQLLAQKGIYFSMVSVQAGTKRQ
Experimental: as §2, §3

[11] = read-out: IC50, 30 min Pre-incubation
[12] = read-out: IC50, No Pre-incubation

CYP2C8 mRNA Fold induction ([1]; Donor 1, 0.03-30 μM, 48 hours): <2 Fold
CYP2C8 mRNA Fold induction ([1]; Donor 2, 0.03-30 μM, 48 hours): <2 Fold
CYP2C8 mRNA induction, % PC ([1]; Donor 3, % of positive control response, at 0.1 μM): 28 % PC
CYP2C8 mRNA Fold induction ([1]; Donor 3, maximal, at 0.1 μM): 3.1 Fold
CYP3A4 mRNA induction, % PC ([2]; Donor 1): 5 % PC
CYP3A4 mRNA Fold induction ([2]; Donor 1): 8.8 Fold
CYP3A4 mRNA induction, % PC ([2]; Donor 2): 6 % PC
CYP3A4 mRNA Fold induction ([2]; Donor 2): 2.5 Fold
CYP3A4 mRNA induction, % PC ([2]; Donor 3): 5 % PC
CYP3A4 mRNA Fold induction ([2]; Donor 3): 3.3 Fold
CYP3A4 mRNA induction, % of positive control response ([2]; all three donors, at 0.1-0.3 μM): 4-6%
fold induction at 48 h ([2]; human, cryopreserved human hepatocytes, all three donors, at 0.1-0.3 μM, read-out: Maximal fold induction in CYP3A4 mRNA): 2.5 to 8.8
IC50 [4, 11]: > 15 µM
IC50 [4, 12]: > 15 µM
IC50 [5, 11]: > 15 µM
IC50 [5, 12]: > 15 µM
% Parent at 0 Min, HLM at 60 min ([6]; human liver microsomes, 60 min): 92.6%
Stability in HLM incubations ([6]; up to 60 min at 2 μM): relatively stable
IC50 [7]: > 3.75 µM
IC50 ([8]; MATE1, substrate Metformin (10 μM)): 3.05 µM
EC50 ([8]; MATE1 inhibition): 3.05 µM
inhibition at 3.75 µM ([8]; MDCKII or HEK293 cells stably expressing MATE1, probe Metformin (10 μM), at a concentration of 3.75 μM): 52%
IC50 [9]: > 3.75 µM
inhibition at 1 µM ([10]; human, probe NMQ (1 μM), Vesicles, substrate NMQ (1 μM), read-out: Maximal % Inhibition): 87%
IC50 ([10]; vesicle assays): 0.23 µM
SMILES: COc1cc(O[C@H]2C(C)(C)[C@H](NC(=O)c3ccc(N4CCC(CN5CCN(c6ccc(C(=O)N[C@H]7CCC(=O)NC7=O)c(F)c6)CC5)CC4)cc3)C2(C)C)ccc1C#N [Compound A, 4-(4-((1-(4-(((1R,3R)-3-(4-cyano-3-methoxyphenoxy)-2,2,4,4-tetramethylcyclobutyl)carbamoyl)phenyl)piperidin-4-yl)methyl)piperazin-1-yl)-N—((S)-2,6-dioxopiperidin-3-yl)-2-fluorobenzamide]
Hepatocyte viability [3]: no significant decrease

Reference: patent US20250009737A1, “COMPOUNDS AND METHODS FOR THE TARGETED DEGRADATION OF ANDROGEN RECEPTOR” (Arvinas Operations, Inc., priority 2023, published 2025)
